How the values were obtained:
Assay type in all cases: cell-based
Klebsielia oxytoca = test: Compound utilization of environmental isolates (growth on minimal medium); conditions: Kelbsiella oxytoca isolate
Method: Samples from diverse natural environments were collected to use for the isolation of microbes that can utilize ascorbic acid (AsA) as the sole carbon source. No bacterial species has previously been reported to grow on AsA minimal medium.
Environmental samples were collected from freshwater lakes, lemon and orange orchards, residential backyard soils, human and animal solid wastes.
Over 100 microbial isolates, capable of forming visible colonies within 20 hours of incubation at 30° C. on M9 minimal medium containing 0.5% AsA, were selected from these samples. These 100 isolates were then screened for their ability to grow on 2-Keto-L-Gulonate (2-KLG) minimal medium.
Thus, Kelbsiella oxytoca was retained as a candidate for genetic engineering of a host strain that can use AsA under controlled conditions for the selection of cloned microbial pathways from 2-KLG to AsA.

[1] = system: K. oxytoca strain MGK003 cosmid clones; test: Growth of selected cosmid library clones of MGK003 on 2-KLG with or without IPTG; conditions: within 20 h at 37° C.
Method: Prior to transfection of K. oxytoca strain MGK003 with the packaging mixture, the tester strain was transformed with plasmid pCB382 expressing the E. coli lamB gene that functions as λ receptor, which appears to be absent or non-functional in most Klebsiella strains (De Vries, G. E., et al., 1984. Proc. Natl. Acad. Sci. USA 81:6080-6084). The resulting MGK003 [λ^s] strain was transfected with the packaged products as follows:
6. The remainder was centrifuged at 3000 g for 5 min and was resuspended in 1 mL of M9 minimal medium supplemented with 10 μM IPTG (IPTG concentration can be varied up to 100 μM), and aliquots (200 μL) were plated on M9 plates containing 0.5% 2-KLG and 50 μM IPTG. 7.
Plates were incubated at 37° C. for 36 h for selecting candidate pathways that would convert 2-KLG to AsA. (Alternatively, selection can be done at 30° C.)
Among 500,000 clones to which a first selection round was applied, approximately 100 colonies of various sizes appeared on 2-KLG/IPTG plates. These were re-streaked on: (i) LB-kanamycin to verify the presence of the cosmid vector; (ii) 2-KLG/IPTG; and (iii) 2-KLG lacking IPTG to determine if growth of the positive clones on 2-KLG was dependent upon the expression of AsA catabolism. […]

K. oxytoca strain MGK003 = test: Growth of tester strain MGK003 on AsA minimal medium with or without IPTG
From the text: To engineer K. oxytoca as a host strain for the selection of biocatalysts which produce AsA, the promoter of the yiaK-S operon was replaced with a DNA fragment that contained the trp-lac hybrid promoter of transcription, the lacO operator, and the lacI^q repressor gene (Brosius, J. 1992. Meth. Enzymol. 216:469-483). This allows the yiaK-S operon, and therefore AsA catabolism, to be turned ON and OFF in a tightly controlled manner in the presence or absence of IPTG, a non-metabolizable inducer of the lac promoter. Practically, a 5-way ligation was set up among: (i) the pMAK705 integration vector which carries a chloramphenicol resistance marker and the thermosensitive origin of replication from plasmid […] (Hamilton, C. M., et al., 1989. J. Bacteriol. 171:4617-4622); (ii) a 0.8 kb fragment containing the 5′ region of the yiaJ gene and its promoter sequences; (iii) the spectinomycin resistance marker retrieved from Staphylococcus aureus Tn554 (Murphy, E. 1985. Mol. Gen. Genet. 200:33-39) to follow integration events; (iv) the lacI^q-lacO-trc promoter fragment retrieved from pSE380 (InVitrogen, Carlsbad, Calif.); and (v) a 1 kb fragment containing the 5′ end of yiaK, including its ribosome binding site for translation initiation while excluding the promoter sequences of the yiaK-S operon (FIG. 10). […]

SMILES	Utilization as sole source of carbon and energy / growth (Klebsielia oxytoca)	Growth of two retained clones ([1]; 2-KLG without IPTG)	Growth of two retained clones ([1]; 2-KLG/IPTG)	Growth on M9 minimal medium (K. oxytoca strain MGK003; MGK003, AsA 0.25% and IPTG 10 to 100 μM)	Growth on M9 minimal medium (K. oxytoca strain MGK003; MGK003, AsA 0.25%, lacking IPTG)
O=C(O)C(=O)[C@@H](O)[C@H](O)[C@@H](O)CO [2-KLG, 2-keto-L-gulonate]	could not grow on 2-KLG	not on 2-KLG without IPTG	grew		
O=C1O[C@H]([C@@H](O)CO)C(O)=C1O [AsA, ascorbic acid]	could utilize AsA as its sole source of carbon and energy			able to grow	no growth

Source: patent US6368793B1, “Metabolic selection methods” (MicroGenomics, Inc., priority 1998, dated 2002)
